Patent publication US11382956B2, “Amylin analogues” (Zealand Pharma A/S, priority 2016, dated 2022)
Numbered stars: 1 amine (or outer) side, 2 acyl side, 3 side chain; on linkers, the order of the positions; unused ones are H or OH. Bridge positions count the residues as written; N and C are the ends. Square brackets hold non-standard residues; d marks the D form. Peptide text beside a SMILES is read from it. * marks the point of attachment. C20 diacid = O=C(O)CCCCCCCCCCCCCCCCCCC(=O)*; γGlu = O=C(O)[C@H](CCC(=O)[*:2])N[*:1]; Hyp = O=C(O)[C@@H]1C[C@@H](O)CN1; NMeI = CC[C@H](C)[C@H](NC)C(=O)O; Aad = N[C@@H](CCCC(=O)O)C(=O)O; Sar = CNCC(=O)O

How the values were obtained:
[1] = molecular target: T1, recombinant human amylin 3 receptor (hAMYR3) (Homo sapiens, UniProt O60896+P30988); assay: hAMYR3 cAMP assay (AlphaScreen) in 1321N1 cells; type: cell-based; settings: cAMP formation, 45 min stimulation
T1 construct: host or cells: human astrocytoma cell line 1321N1
T1 sequence (P30988 25-474): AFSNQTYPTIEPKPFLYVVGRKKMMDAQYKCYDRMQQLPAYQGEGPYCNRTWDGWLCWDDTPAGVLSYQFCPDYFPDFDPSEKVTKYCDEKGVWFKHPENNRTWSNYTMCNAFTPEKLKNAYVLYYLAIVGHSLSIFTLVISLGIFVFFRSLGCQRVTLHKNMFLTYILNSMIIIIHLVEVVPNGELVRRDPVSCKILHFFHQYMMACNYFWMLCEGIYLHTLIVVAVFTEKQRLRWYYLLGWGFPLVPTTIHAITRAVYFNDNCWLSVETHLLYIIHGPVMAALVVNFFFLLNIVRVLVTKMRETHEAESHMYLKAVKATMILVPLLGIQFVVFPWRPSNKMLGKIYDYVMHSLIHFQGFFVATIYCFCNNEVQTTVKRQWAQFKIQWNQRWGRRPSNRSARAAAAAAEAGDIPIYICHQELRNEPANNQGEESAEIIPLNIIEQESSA
T1 sequence (O60896 24-148 partner): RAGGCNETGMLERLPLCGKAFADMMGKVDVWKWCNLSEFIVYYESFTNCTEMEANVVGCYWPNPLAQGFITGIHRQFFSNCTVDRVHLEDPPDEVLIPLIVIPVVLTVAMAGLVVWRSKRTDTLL
Procedure, shortened: (§1)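 1321N1 astrocytoma cells expressing recombinant human calcitonin receptor alone or with RAMP3 (AMY3) stimulated 45 min at room temperature with peptide in IBMX-containing buffer. cAMP quantified by AlphaScreen after 1 h bead incubation; EC50 fitted from at least 7 concentrations.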

[2] = molecular target: T2, recombinant human calcitonin receptor (hCT-R) (Homo sapiens, UniProt P30988); assay: hCT-R cAMP assay (AlphaScreen) in 1321N1 cells; type: cell-based; settings: cAMP formation, 45 min stimulation
T2 construct: host or cells: human astrocytoma cell line 1321N1
T2 sequence (P30988 25-474): T1 sequence (P30988 25-474)
Procedure, shortened: as §1

| EC50 [1] | EC50 [2] | Structure (SMILES) |
| --- | --- | --- |
| 0.066 nM | 0.227 nM | CC[C@H](C)[C@@H](C(=O)N[C@@H](CC(C)C)C(=O)N[C@@H](CO)C(=O)N[C@@H](CO)C(=O)N[C@H](C(=O)N[C@@H](CCC(=O)O)C(=O)N[C@H](C(=O)NCC(=O)N[C@@H](CO)C(=O)N[C@@H](CC(N)=O)C(=O)N[C@H](C(=O)N1C[C@H](O)C[C@H]1C(N)=O)[C@@H](C)O)C(C)C)[C@@H](C)O)N(C)C(=O)[C@H](C)NC(=O)CN(C)C(=O)[C@H](Cc1ccccc1)NC(=O)[C@H](C)NC(=O)[C@H](C)NC(=O)[C@H](CCCNC(=N)N)NC(=O)[C@H](CCC(N)=O)NC(=O)[C@H](CC(C)C)NC(=O)[C@H](Cc1ccccc1)NC(=O)[C@H](CCCC(=O)O)NC(=O)[C@H](C)NC(=O)[C@H](CC(C)C)NC(=O)[C@H](CCCNC(=N)N)NC(=O)[C@H](CCC(=O)O)NC(=O)[C@@H](NC(=O)[C@H](C)NC(=O)[C@@H]1CCCCNC(=O)C[C@H](NC(=O)[C@H](CCCNC(=N)N)NC(=O)CC[C@H](NC(=O)CCCCCCCCCCCCCCCCCCC(=O)O)C(=O)O)C(=O)NCC(=O)N[C@@H]([C@@H](C)O)C(=O)N[C@@H](C)C(=O)N[C@@H]([C@@H](C)O)C(=O)N1)[C@@H](C)O [Compound 31, [19CD]-isoGlu-RD()GTATK()ATERLA-Aad-FLQRAAF-Gly(Me)-A-Ile(Me)-LSSTEVGSNT-Hyp-NH2] ({C20 diacid-γGlu}-RDGTATKATERLA[Aad]FLQRAAF[Sar]A[NMeI]LSSTEVGSNT[Hyp]-NH2; lactam 2-7) |
| 0.003 nM | 0.006 nM | CC[C@H](C)[C@@H](C(=O)N[C@@H](CC(C)C)C(=O)N[C@@H](CO)C(=O)N[C@@H](CO)C(=O)N[C@H](C(=O)N[C@@H](CCC(=O)O)C(=O)N[C@H](C(=O)NCC(=O)N[C@@H](CO)C(=O)N[C@@H](CC(N)=O)C(=O)N[C@H](C(=O)N1C[C@H](O)C[C@H]1C(N)=O)[C@@H](C)O)[C@@H](C)O)[C@@H](C)O)N(C)C(=O)[C@H](C)NC(=O)CN(C)C(=O)[C@H](Cc1ccccc1)NC(=O)[C@H](CO)NC(=O)[C@H](CO)NC(=O)[C@H](CCCNC(=N)N)NC(=O)[C@H](CCC(N)=O)NC(=O)[C@H](CC(C)C)NC(=O)[C@H](Cc1ccccc1)NC(=O)[C@H](CC(=O)O)NC(=O)[C@H](C)NC(=O)[C@H](CC(C)C)NC(=O)[C@H](CCCNC(=N)N)NC(=O)[C@H](CCC(N)=O)NC(=O)[C@@H](NC(=O)[C@H](C)NC(=O)[C@@H]1CCCCNC(=O)C[C@H](NC(=O)[C@H](CCCNC(=N)N)NC(=O)CC[C@H](NC(=O)CCCCCCCCCCCCCCCCCCC(=O)O)C(=O)O)C(=O)NCC(=O)N[C@@H]([C@@H](C)O)C(=O)N[C@@H](C)C(=O)N[C@@H]([C@@H](C)O)C(=O)N1)[C@@H](C)O [Compound 42, [19CD]-isoGlu-RD()GTATK()ATQRLADFLQRSSF-Gly(Me)-A-Ile(Me)-LSSTETGSNT-Hyp-NH2] ({C20 diacid-γGlu}-RDGTATKATQRLADFLQRSSF[Sar]A[NMeI]LSSTETGSNT[Hyp]-NH2; lactam 2-7) |
